Tested on: male ob/ob mice
Experiment: 9-week efficacy and safety study in male ob/ob mice
Type: in vivo
Details: T3 100 nmole/kg/day SC
Method: The objective of this study was to evaluate the efficacy and safety of Compound 2 treatment at doses of 3, 10, and 30 mg/kg/day for 9 weeks in male ob/ob mice. 3,3′,5-Triiodo-L-thyronine (T3) was used as a comparator in this study.
Methods: Seventy-eight adult male ob/ob mice were assigned to six different treatment groups (n=6-24/group). Animals were dosed daily with either vehicle [1% carboxymethylcellulose (CMC) in water, PO], T3 [(100 nmole/kg/day in aqueous solution, subcutaneous (SC)], or Compound 2 [3, 10 or 30 mg/kg/day in 1% CMC, PO]. Blood glucose and plasma cholesterol were measured weekly in all animals. Subsets of animals in the vehicle-treated and 30 mg/kg/day Compound 2-treated groups were sacrificed after 3, 6 and 9 weeks of treatment to analyze the temporal effects of Compound 2 on liver weight and liver triglyceride levels. Liver triglyceride levels, liver glycogen content, heart, liver and epididymal fat pad weights, and plasma clinical chemistry parameters were measured at sacrifice.

SMILES: N[C@@H](Cc1cc(I)c(Oc2ccc(O)c(I)c2)c(I)c1)C(=O)O [Compound T3, 3,3′,5-Triiodo-L-thyronine, reference compound]
- ALT levels: decreased
- increased plasma triglyceride levels: ~56%
- plasma albumin levels: decreased
- plasma calcium levels: decreased
- total plasma protein levels: decreased
- liver weight (9 weeks): lower
- blood glucose levels (all time points, vs vehicle): similar
- total plasma cholesterol lower (at 9 weeks, vs vehicle): ~66%
- terminal liver glycogen levels (vs vehicle): similar
- terminal liver triglyceride levels (vs vehicle): similar

From patent publication US11202789B2, “Method of treating glycogen storage disease” (Viking Therapeutics, Inc., priority 2016, dated 2021)
